Data on one substance can be found in paper PMC8715119, “Second-generation non-hematopoietic erythropoietin-derived peptide for neuroprotection” (Redox Biology, 2021).

Experiment [1] concerns differentiated neuronal PC12 cells. Nature of the experiment: Cellular ROS level by H2DCFDA under H2O2. The note with it: H2O2 for 6 h; H2DCFDA staining; n = 5; Fig. 4b. It is filed as cell-based, rat. The method, then: (§1) PC12 cells (#CRL-1721, ATCC, USA), a rat pheochromocytoma cell line derived from the adrenal medulla (#CRL-1721, ATCC, USA), were seeded on a dish, which was coated by poly L-lysine (0.01%; Sigma Chemical Co., USA), and grown in RPMI 1640 medium (#11875093, Gibco, USA), supplemented with 10% heat-inactivated horse serum (#26050088, Gibco, USA), 5% fetal bovine serum (FBS) (#SH30919.03, Hyclone, USA), and 1% penicillin/streptomycin at 37°C with 5% CO2. For neuronal differentiation, PC12 cells were plated at a density of 1.25x10^3 cell/cm^2 into 96-well plates coated with collagen 1 (#354236, BD Biosciences, USA) and grown in RPMI 1640 medium supplemented with 50 ng/ml nerve growth factor (NGF) (BD Biosciences, USA) and 0.5% FBS for 10 days. The NGF-supplemented media was replaced with fresh media every 3 days during neuronal differentiation.
The cellular ROS level was measured using 2′,7′-dichlorodihydrofluorescein diacetate (H2DCFDA) (#D399, Invitrogen, USA). The cells were incubated with 5 μM H2DCFDA in PBS for 30 min, washed with PBS, and then resuspended in the medium for 2 h. After treatment of H2O2 without or with reEPO, or peptide, we monitored the oxidative stress by measuring the fluorescence intensities of H2DCFDA by using excitation and emission wavelengths of 485 nm and 535 nm, respectively.

For experiment [2] the test system is unchanged. Nature of the experiment: Cell viability (MTS) under H2O2-induced oxidative stress. It is filed as cell-based, rat. As to conditions: H2O2 for 24 h; reEPO 0.5 IU/ml, ML1 1 ng/ml or ML1 analogs; n = 5; Fig. 4a. The method, then:
as §1
(§2) Cell viability was evaluated by 3-[(4,5-dimethylthiazol-2-yl)-5,3-carboxymethoxyphenyl]-2-(4-sulfophenyl)-2H tetrazolium, inner salt (MTS) reduction assay (CellTiter 96 Aqueous One Solution Cell Proliferation Assay, Promega, Madison, WI, USA). Briefly, differentiated neuronal-PC12 cells were treated with H2O2 (300 μM) with or without reEPO and peptides for 24 h. The PC12 cells were washed with PBS; 20 ul MTS solution was added to each well with 100 μl PBS, and the cells were incubated for 3 h at 37°C and 5% CO2. The intracellular soluble formazan produced by cellular reduction of the MTS was determined by recording the absorbance at 490 nm using a microplate reader (VersaMax, Molecular Devices, USA). Cell proliferation was also evaluated by the MTS assay. Undifferentiated PC12 cells were seeded into a 96-well plate (5x10^4 cells/well). The next day, the initial cell number was counted; after 48 h, under low FBS concentration (0.5%), with or without reEPO and peptides, cell number was measured by the MTS assay.

Experiment [3] deals with rat primary cortical neurons. Nature of the experiment: Viability (Calcein-AM) under glutamate-induced excitotoxicity. The note with it: glutamate (30 μM) for 24 h, reEPO 0.5 IU/ml, peptides 1 ng/ml, n = 3, Fig. 4e. Format: cell-based. On the procedure:
On the embryonic day 17, embryonic cerebral cortices were dissected from pregnant Sprague–Dawley rats. The cerebral cortices were treated with 0.25% trypsin-EDTA (#25200056, Gibco, USA) and then mechanically dissociated into single cells by pipetting. The dissociated cells were plated on 96-well plates coated by 50 μg/ml poly-L-lysine (P8920, Sigma-Aldrich, USA) at a density of 2.5 × 10^4 cells per well. They were incubated in neurobasal medium (#21103049, Gibco, USA) containing 2% B27 supplement (#17504044, Gibco, USA), 0.5 mM L-glutamine (#15430614, Gibco, USA), 25 μM glutamic acid (#G1251, Sigma-Aldrich, USA), and 1% penicillin/streptomycin (#15140122, Gibco, USA) at 37°C with 5% CO2. The medium was changed to a fresh medium without glutamate every 3–4 days, and on day 10, glutamic acid (30 μM) was added to induce excitotoxicity in the cells treated with or without reEPO and peptides.
To measure the viability of rat primary cortical neurons, we used Calcein-AM (#C3100MP, Invitrogen, USA). Cultured rat cortical neurons plated on 96-well plates (2.5 × 10^4 cells per well) were incubated with Calcein-AM (3 μM) for 30 min after various treatments. The intensity of the Calcein-AM signal (excitation, 485 nm; detection 535 nm) was measured by using a micro plate reader (VersaMax, Molecular Devices, USA).

The subject of experiment [4] is undifferentiated PC12 cells. Nature of the experiment: Cell proliferation (MTS) under low serum. Format: cell-based, rat. As to conditions: 0.5% fetal bovine serum, 48 h, reEPO 10 IU/ml, peptides 10 ng/ml, n = 5, Fig. 4c. The method, then:
PC12 cells (#CRL-1721, ATCC, USA), a rat pheochromocytoma cell line derived from the adrenal medulla (#CRL-1721, ATCC, USA), were seeded on a dish, which was coated by poly L-lysine (0.01%; Sigma Chemical Co., USA), and grown in RPMI 1640 medium (#11875093, Gibco, USA), supplemented with 10% heat-inactivated horse serum (#26050088, Gibco, USA), 5% fetal bovine serum (FBS) (#SH30919.03, Hyclone, USA), and 1% penicillin/streptomycin at 37°C with 5% CO2. […]
as §2, with “Briefly, differentiated neuronal-PC12 cells were treated with H2O2 (300 μM) with or without reEPO and peptides for 24 h. The PC12 cells were washed with PBS; 20 ul MTS solution was added to each well with 100 μl PBS, and the cells were incubated for 3 h at 37°C and 5% CO2.” left out, “Undifferentiated PC12 cells were seeded into a 96-well plate (5x10^4 cells/well).” left out

For experiment [5], the system named is AKT. Nature of the experiment: Time-series immunoblot of phosphorylated AKT. Format: cell-based, rat. As to conditions: PC12 cells; 1 nM; deficient level by 30 min, maintained at 90 min; n = 3. The method, then: (§3) PC12 or HT-22 cells were lysed in 100 mM Tris-Cl (pH 6.8) with 4% SDS. The lysates were loaded onto sodium dodecyl sulfate-polyacrylamide gel electrophoresis (SDS-PAGE) (8–10%), and the proteins were transferred onto the nitrocellulose membrane. The membrane was blocked with 0.1% TBST and 5% non-fat dry milk at 25°C for 30 min. Primary antibodies were diluted in 0.1% TBST and 3% bovine serum albumin (BSA). The primary antibodies included anti-pJAK2 (#3776, Cell Signaling Technology, USA), anti-JAK2 (#3230, Cell Signaling Technology, USA), anti-pSTAT5 (#9351, Cell Signaling Technology, USA), anti-STAT5 ([…], Cell Signaling Technology, USA), anti-pAKT (#9271, Cell Signaling Technology, USA), anti-AKT (#9272, Cell Signaling Technology, USA), anti-pERK (#9101, Cell Signaling Technology, USA) anti-ERK (#9102, Cell Signaling Technology, USA), anti-EPOR (#sc-365662, Santa Cruz Biotechnology, USA), anti-β-Actin (Santa Cruz Biotechnology, USA), anti-Bax (Santa Cruz Biotechnology, USA), anti-cleaved Casp3 (Cell Signaling Technology, USA), and anti-cleaved Parp1 (Cell Signaling Technology, USA).

Experiment [6] concerns Bax. Nature of the experiment: Immunoblot of Bax after hypoxia and re-oxygenation. Format: cell-based, mouse. The note with it: HT-22 cells; reEPO 0.5 IU/ml, ML1-h3 1 ng/ml; normalized by β-Actin; n = 6. On the procedure: as §3
(§4) The HT-22 cells were seeded onto 96-well or 6-well plates. The next day, HT-22 cells were placed inside a sealed air-tight container consisting of an anaeropack (Mitsubishi Gas Company, Tokyo, Japan), which can induce a hypoxic atmosphere by absorbing oxygen and generating carbon dioxide. […]

Experiment [7] has as its system cleaved Caspase 3. Nature of the experiment: Immunoblot of cleaved Caspase 3 after hypoxia and re-oxygenation. It is filed as cell-based, mouse. The note with it: HT-22 cells; reEPO 0.5 IU/ml, ML1-h3 1 ng/ml; normalized by β-Actin; n = 6. On the procedure: as §3, §4

For “reEPO: Recombinant human EPO (Epoetin-α, CJ HealthCare Corporation)”, the “Level of reactive oxygen species (ROS) induced by H2O2” value in experiment [1] is given as “decreased the levels of reactive oxygen species (ROS)”. In addition, the “Cell death under H2O2-induced oxidative stress (cell viability)” value in experiment [2] is “significantly suppressed the cell death”. For the same substance, in experiment [3], the “Neuroprotective effect against glutamate-induced excitotoxicity (viability)” value is listed as “showed a neuroprotective effect against glutamate-induced excitotoxicity”. The “Cell proliferation (cell number)” value in experiment [4] is on record as “significantly increased the proliferation”. For the same substance, the “Level of phosphorylated AKT (pAKT) over time” value in experiment [5] was “gradually reduced phosphorylated AKT”. Also, the “Level of Bax under H/R” value in experiment [6] is “efficiently reduced the levels of Bax”. Moreover, the “Level of cleaved Caspase 3 under H/R” value in experiment [7] is reported as “efficiently reduced the levels of Bax, cleaved Caspase 3”.
